The values that follow come from patent US9751837B2, “Kinase inhibitors” (RESPIVERT LIMITED, priority 2014, dated 2017).

For one data set, the target named is p38 MAPKα (MAPK14) (Homo sapiens (Human), UniProt Q16539). Nature of the data set: p38 MAPKα enzyme inhibition (Method 2), Z-LYTE FRET. It is filed as biochemical. On the procedure:
(§1) The enzyme inhibitory activities of compounds disclosed herein are determined by FRET using synthetic peptides labelled with both donor and acceptor fluorophores (Z-LYTE, Invitrogen Ltd., Paisley, UK).
The following two assay variants can be used for determination of p38 MAPKα inhibition.
The inhibitory activities of test compounds against the p38 MAPKα isoform (MAPK14: Invitrogen) are evaluated indirectly by determining the level of activation/phosphorylation of the down-stream molecule, MAPKAP-K2. The p38 MAPKα protein (80 ng/mL, 2.5 μL) is mixed with the test compound (2.5 μL of either 4 μg/mL, 0.4 μg/mL, 0.04 μg/mL or 0.004 μg/mL) for 2 hr at RT. […] The mixture is incubated for 1 hr at RT. Development reagent (protease, 5 μL) is added for 1 hr prior to detection in a fluorescence microplate reader (Varioskan® Flash, ThermoFisher Scientific). […]
(§2) In all cases, the site-specific protease cleaves non-phosphorylated peptide only and eliminates the FRET signal. Phosphorylation levels of each reaction are calculated using the ratio of coumarin emission (donor) over fluorescein emission (acceptor), for which high ratios indicate high phosphorylation and low ratios indicate low phosphorylation levels.

The target in a further data set is c-Src (Homo sapiens (Human), UniProt P12931). The experiment in a line: c-Src enzyme inhibition, Z-LYTE FRET. The data set is classed as biochemical. As to the method:
as §1
The inhibitory activities of compounds of the invention against c-Src and Syk enzymes (Invitrogen), are evaluated in a similar fashion to that described hereinabove. The relevant enzyme (3000 ng/mL or 2000 ng/mL respectively, 2.5 μL) is incubated with the test compound (either 1 μg/mL, 0.1 μg/mL, 0.01 μg/mL, or 0.001 μg/mL, 2.5 μL each) for 2 hr at RT. The FRET peptides (8 μM. 2.5 μL), and appropriate ATP solutions (2.5 μL, 800 μM for c-Src, and 60 μM ATP for Syk) are then added to the enzymes/compound mixtures and the mixture incubated for 1 hr. Development reagent (protease, 5 μL) is added for 1 hr prior to detection in a fluorescence microplate reader (Varioskan® Flash, ThermoFisher Scientific).
as §2

The target in another data set is Syk (Homo sapiens (Human), UniProt P43405). The experiment in a line: Syk enzyme inhibition, Z-LYTE FRET. It is filed as biochemical. On the procedure:
as §1
The relevant enzyme (3000 ng/mL or 2000 ng/mL respectively, 2.5 μL) is incubated with the test compound (either 1 μg/mL, 0.1 μg/mL, 0.01 μg/mL, or 0.001 μg/mL, 2.5 μL each) for 2 hr at RT. […] Development reagent (protease, 5 μL) is added for 1 hr prior to detection in a fluorescence microplate reader (Varioskan® Flash, ThermoFisher Scientific).
as §2

A short description of data set [1]: Pharmacokinetics and total colon distribution after single oral administration. It is filed as in vivo, male C57BL/6 mice. The conditions noted are these: mice, oral 5 mg/kg; for total colon level: measured cpd = dosed cpd (1, 19, 47 as Na salt, 44 as NH4+ salt); for Mean blood concentration: measured cpd = dosed cpd (19, 47 as Na salt). On the procedure: Studies were conducted by Sai Life Sciences (Hinjewadi, Pune, India) to investigate the systemic pharmacokinetics and total colon tissue distribution of compounds of the invention. In particular, pharmacokinetic studies were carried out in male C57BL/6 mice following a single oral administration of the compound.

Data set [2] is described as follows: Hydrolytic stability study (DMSO/water 3:1, 60° C.). It is filed as physicochemical. As to the method:
Chemical stability of compounds of the invention was assessed in a mixture of DMSO and water (3:1) at a test compound concentration of 1 mg/mL.
General HPLC Procedure • Agilent, Waters X-Select C18, 2.5 μm, 4.6×30 mm column, 4 min method, 5-95% MeCN/water (0.1% formic acid). Flow rate 2.5 mL/min. Column Oven Temperature 40° C. Detection 254 nm.
Sample Preparation • A 1.0 mg sample of test compound was dissolved in 750 μL of DMSO. Water (250 μL) was added slowly, ensuring no precipitation occurred.
Recording Stability • A 50 μL aliquot of the test solution was removed and analysed in duplicate by 5 μL HPLC injections. The peak area for the test compound was recorded following manual integration of the corresponding UV trace. • The test solution was heated to 60° C., with stirring, and 50 μL aliquots removed for HPLC analysis at 5 and 24 h timepoints.

The next data set deals with LPS-stimulated rats. The experiment in a line: Endotoxin-induced uveitis in rats (vi). The data set is classed as in vivo, Lewis rats. The conditions noted are these: rats treated with intravitreal endotoxin LPS. On the procedure:
Male, Lewis rats (6-8 weeks old, Charles River UK Limited) are housed in cages of 3 at 19-21° C. with a 12 h light/dark cycle (07:00/19:00) and fed a standard diet of rodent chow and water ad libitum. Non-fasted rats are weighed, individually identified on the tail with a permanent marker, and receive a single intravitreal administration into the right vitreous humor (5 μL dose volume) of 100 ng/animal of LPS (Escherichia coli 0111:B4 prepared in PBS, Sigma Aldrich, UK) using a 32-gauge needle. Untreated rats are injected with PBS. Test compound or vehicle (4% polyoxyl 40 stearate, 4% mannitol in PBS (pH 7.4)) are administered by the topical route onto the right eye (10 μL) of animals 1 hour prior to LPS, at the time of LPS administration, and 1, 2 and 4 hours post LPS administration. Before administration, the solution to be administered is sonicated to ensure a clear solution. 6 hours after LPS dosing, animals are euthanized by overdose with pentobarbitone (via cardiac puncture). Immediately after euthanasia, 10 μL of aqueous humor is collected from the right eye of the rats by puncture of the anterior chamber using a 32 gauge needle under a surgical microscope. The aqueous humor is diluted in 20 μL of PBS and total cell counts are measured immediately using a Countess automated cell counter (Invitrogen). […]

The format of data set [3] is in vivo. As to conditions: four daily instillations, 0.1 and 1.0 mg/mL, rabbits.
Data set [4] can be described thus: Stability of pharmaceutical formulations (HPLC). The data set is classed as physicochemical. As to conditions: 1 mg/mL Na and HCl salts in 10 mM pH 7.2 phosphate buffer, 4.5% mannitol, 3% polyoxyl 40 stearate; 5° C. On the procedure: The samples were sonicated to achieve clear solutions having the following properties: Osmolality (mOsm/kg): 310 (Na), 314 (HCl); pH: 7.00 (Na), 7.05 (HCl). 0.5 mL of the stock solutions were diluted to 1 mL with 20% DMSO in water & injected for purity analysis by HPLC. The remaining stock solutions were then split into aliquots of 0.5 mL in HPLC vials, and stored at various conditions in duplicate. Samples were stored at 5 and 25° C., before being analysed by HPLC at 1, 2 and 4 weeks. Separate samples were stored at 40° C. and analysed at 4 weeks.

Data set [5] relates to Escherichia coli, WP2 uvrA. The experiment in a line: Bacterial reverse mutation screen, Escherichia coli. The conditions noted are these: presence or absence of S-9 mix, plate incorporation.
In data set [6] the test system is Salmonella typhimurium, strains TA1535, TA1537, TA98 and TA100. The experiment in a line: Bacterial reverse mutation screen, Salmonella typhimurium.

Molecules are shown by their SMILES. Like-named read-outs stand apart in the source and are kept apart here.

Sequence of c-Src (P12931 whole entry, looked up): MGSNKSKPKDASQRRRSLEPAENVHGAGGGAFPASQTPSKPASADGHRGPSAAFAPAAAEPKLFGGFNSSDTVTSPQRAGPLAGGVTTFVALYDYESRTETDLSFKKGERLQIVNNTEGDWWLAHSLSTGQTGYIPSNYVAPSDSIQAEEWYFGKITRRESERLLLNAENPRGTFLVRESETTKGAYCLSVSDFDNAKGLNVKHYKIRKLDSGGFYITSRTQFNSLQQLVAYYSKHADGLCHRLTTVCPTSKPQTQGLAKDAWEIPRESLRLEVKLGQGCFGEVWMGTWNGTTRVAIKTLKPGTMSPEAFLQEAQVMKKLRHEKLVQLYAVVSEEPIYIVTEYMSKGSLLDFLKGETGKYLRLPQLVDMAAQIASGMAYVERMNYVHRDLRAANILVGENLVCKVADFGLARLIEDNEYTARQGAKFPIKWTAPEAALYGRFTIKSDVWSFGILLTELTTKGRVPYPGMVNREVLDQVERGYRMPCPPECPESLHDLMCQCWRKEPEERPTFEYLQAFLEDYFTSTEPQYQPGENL
Sequence of p38 MAPKα (MAPK14) (Q16539 whole entry): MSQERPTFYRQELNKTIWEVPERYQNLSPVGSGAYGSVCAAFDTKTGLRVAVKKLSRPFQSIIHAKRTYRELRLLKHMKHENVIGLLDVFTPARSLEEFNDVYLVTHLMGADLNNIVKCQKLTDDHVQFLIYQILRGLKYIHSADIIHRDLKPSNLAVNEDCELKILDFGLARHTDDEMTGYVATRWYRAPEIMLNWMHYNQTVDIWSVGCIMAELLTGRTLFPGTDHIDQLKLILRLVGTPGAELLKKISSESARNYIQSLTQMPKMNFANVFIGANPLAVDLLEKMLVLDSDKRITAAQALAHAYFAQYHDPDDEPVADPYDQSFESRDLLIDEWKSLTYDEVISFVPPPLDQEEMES

One may read the IC50 as the concentration at which inhibition is half-maximal. A lower IC50 goes with inhibition by little substance. `COc1cc(Nc2cc(Oc3ccc(NC(=O)Nc4cc(C(C)(C)C)cc(NS(C)(=O)=O)c4OC)c4ccccc34)ccn2)ccc1C(=O)NCCOCCOCCOP(=O)(O)O` [Example 19, 2-(2-(2-(4-((4-((4-(3-(5-(tert-Butyl)-2-methoxy-3-(methylsulfonamido)phenyl)ureido)naphthalen-1-yl)oxy)pyridin-2-yl)amino)-2-methoxybenzamido)ethoxy)ethoxy)ethyl dihydrogen phosphate]: the IC50 on p38 MAPKα (MAPK14) came out at 8 nM; at c-Src, 22 nM; on Syk it was 8 nM. The total colon level in data set [1] (0.5 h), in [1] (1 h), in data set [1] (2 h), in data set [1] (4 h), in data set [1] (6 h) and in [1] (8 h) was 0.0 ng/g throughout. For the same molecule, the total colon level in data set [1] (12 h) and in [1] (24 h) was 0.0 ng/g each time. Besides, the Mean blood concentration in data set [1] (0.5 h), in data set [1] (1 h), in data set [1] (2 h), in data set [1] (4 h), in [1] (6 h) and in data set [1] (8 h) was 0.0 ng/mL throughout. Further, the Mean blood concentration in [1] (12 h) and in data set [1] (24 h) was 0.0 ng/mL in each case.

For `C#Cc1cc(Nc2nccc(Oc3ccc(NC(=O)Nc4cc(C(C)C)nn4-c4ccc(C)cc4)c4ccccc34)n2)cc(C(=O)NCCN2CCOCC2)c1` [Reference Compound B, 3-ethynyl-5-((4-((4-(3-(3-isopropyl-1-(p-tolyl)-1H-pyrazol-5-yl)ureido)naphthalen-1-yl)oxy)pyrimidin-2-yl)amino)-N-(2-morpholinoethyl)benzamide], in data set [2], the “decomposition under the conditions of the hydrolytic stability experiment” value is recorded as “substantial decomposition”.

On to `COc1cc(Nc2cc(Oc3ccc(NC(=O)Nc4cc(C(C)(C)C)cc(NS(C)(=O)=O)c4OC)c4ccccc34)ccn2)ccc1C(=O)O` [Example 1, 4-((4-((4-(3-(5-(tert-Butyl)-2-methoxy-3-(methylsulfonamido)phenyl)ureido)naphthalen-1-yl)oxy)pyridin-2-yl)amino)-2-methoxybenzoic acid], for which the “cellular infiltration and cytokine IL-1β levels in anterior and posterior segments of the eyes” value in the data set with LPS-stimulated rats was “significantly and dose-dependently reduced”. Moreover, the “local tolerability of the formulations (ocular)” value in data set [3] (Phase 1: one treatment day) and in data set [3] (Phase 2: three consecutive treatment days) was “acceptable” each time. The stability in solution entry in data set [4] was “stable”. Also, the “mutagenic effects (revertant numbers)” value was “absence of any mutagenic effects” in data set [5] and “absence of any mutagenic effects” in [6] (TA1535, TA1537, TA98, TA100, presence or absence of S-9 mix, plate incorporation). In addition, the “dose with reduction in the mean colony count (toxicity to the bacteria)” value in [6] (TA1535, presence of S-9 mix) is given as 1500 μg/plate. For the same molecule, in [6] (all strains, presence and absence of S-9 mix, plate incorporation), the “limit of solubility in the mutation test” value turned out to be 1500 μg/plate.
